pIC50: −log10 of the molar value. Read-outs that look alike come from different tables or passages of the source. Each block holds one compound with its values, some of them ahead of it.
Key:
[1] = molecular target: T1, aromatase (microsomes from the human placenta) (Homo sapiens, UniProt P11511); assay: Aromatase inhibition in vitro, tritiated water method, human placenta microsomes; assay type: biochemical; conditions: for pIC50: value without (h)/(e) mark, read-out: Activity In vitro IC50; for IC50: value marked (h), read-out: Activity In vitro IC50(nM), (h)
T1 construct: using microsomes from the human placenta as source of the enzyme; from tissue; host or cells: human placenta microsomes
T1 sequence (P11511 1-503): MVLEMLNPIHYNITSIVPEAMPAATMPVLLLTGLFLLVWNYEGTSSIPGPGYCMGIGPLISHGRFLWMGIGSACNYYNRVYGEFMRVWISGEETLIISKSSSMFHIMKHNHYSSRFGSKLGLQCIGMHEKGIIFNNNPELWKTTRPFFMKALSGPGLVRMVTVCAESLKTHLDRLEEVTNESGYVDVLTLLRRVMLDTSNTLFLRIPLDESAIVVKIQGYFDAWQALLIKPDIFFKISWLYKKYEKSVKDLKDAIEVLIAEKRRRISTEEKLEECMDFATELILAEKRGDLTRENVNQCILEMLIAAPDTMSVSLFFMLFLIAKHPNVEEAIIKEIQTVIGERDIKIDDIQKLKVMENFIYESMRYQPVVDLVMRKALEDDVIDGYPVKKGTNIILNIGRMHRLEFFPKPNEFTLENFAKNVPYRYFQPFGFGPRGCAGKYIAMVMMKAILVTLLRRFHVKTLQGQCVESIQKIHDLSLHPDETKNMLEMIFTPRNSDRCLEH

[2] = tested on: uterine hypertrophy induced by androstenedione; assay: Activity in vivo: inhibition of uterine hypertrophy induced by androstenedione; design: species or system rat (Sprague-Dawley); conditions: Rattus norvegicus, 96 h, immature female rats, androstenedione 30 mg/kg for 4 days, read-out: % inhibition to doses (μg/Kg); for inhibition in vivo at 0.001 mg/kg: dose 1 μg/Kg; for inhibition in vivo at 0.01 mg/kg: dose 10 μg/Kg; for inhibition in vivo at 0.1 mg/kg: dose 100 μg/Kg; for inhibition in vivo at 1 mg/kg: dose 1000 μg/Kg; for inhibition in vivo at 0.003 mg/kg: dose 3 μg/Kg
Protocol: The activity in vivo of aromatase inhibition by compounds of formula (I) according to the invention has been tested according to the model established by Bharnagar et al. (1990).
In general, immature female rats of the Sprague-Dawley line of a weight ranging from 40 to 50 g have been treated with a dose of androstenedione at 30 mg/kg for 4 days, in the absence or in the presence of doses of various compounds of formula (I).
Four hours after administration of an aromatase inhibitor, the rats were sacrificed. Their uteruses were removed, cleared of adhering fat and conjunctive tissue, next the uteruses were weighed (wet weight). The dry weight of the uteruses was determined the following day after a step of drying for one night at 80° C.

[3] = molecular target: aromatase (e) (UniProt O46512); assay type: biochemical; conditions: value marked (e); read-out: Activity In vitro IC50(nM), (e)
Chain of aromatase (e) (O46512 whole entry): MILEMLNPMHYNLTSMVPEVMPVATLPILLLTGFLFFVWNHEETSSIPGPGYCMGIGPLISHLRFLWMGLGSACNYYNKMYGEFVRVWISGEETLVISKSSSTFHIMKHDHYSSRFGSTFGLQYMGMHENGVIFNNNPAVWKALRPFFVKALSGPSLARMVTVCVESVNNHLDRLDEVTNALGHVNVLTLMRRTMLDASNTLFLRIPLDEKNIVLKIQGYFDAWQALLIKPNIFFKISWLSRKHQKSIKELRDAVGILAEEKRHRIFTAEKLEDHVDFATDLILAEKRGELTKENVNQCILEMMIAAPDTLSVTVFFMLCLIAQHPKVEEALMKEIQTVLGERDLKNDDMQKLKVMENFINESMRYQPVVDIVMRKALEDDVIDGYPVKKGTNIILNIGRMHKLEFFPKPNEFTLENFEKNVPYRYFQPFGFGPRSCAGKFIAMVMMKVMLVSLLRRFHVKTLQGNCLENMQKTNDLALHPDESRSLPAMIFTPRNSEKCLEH

pIC50 [1]: 8.23
Compound: N#Cc1ccc(C(c2ccc3oc(=O)[nH]c3c2)n2ccnc2)cc1 (stereo not shown) [PC11128]
inhibition in vivo at 0.001 mg/kg [2]: 29%
inhibition in vivo at 0.01 mg/kg [2]: 29%
inhibition in vivo at 0.1 mg/kg [2]: 53%

pIC50 [1]: 7.18
Compound: O=C1COc2ccc(C(c3ccccc3)n3ccnc3)cc2N1 (stereo not shown) [PCH218]

pIC50 [1]: 6.75
Compound: Cn1c(=O)sc2ccc(C(c3ccccc3)n3cncn3)cc21 (stereo not shown) [PCH134]

Compound: N#Cc1cccc(C(c2ccc3[nH]c(=O)oc3c2)n2ccnc2)c1 (stereo not shown) [PCH119]
IC50 [3]: 27.7 nM
IC50 [1]: 25.1 nM

pIC50 [1]: 6.48
Compound: 5-[(4-Cyanophenyl)(1H-1,2,4-triazol-1-yl)methyl]-6-methoxy-1,3-benzoxazol-2(3H)-one [GCA37]

pIC50 [1]: 7.77
Compound: O=c1[nH]c2cc(C(c3ccc(Cl)cc3)n3cncn3)ccc2o1 (stereo not shown) [PCH195]

pIC50 [1]: 8.39
Compound: N#Cc1ccc(C(c2ccc3[nH]c(=O)sc3c2)n2ccnc2)cc1 (stereo not shown) [PC11215]
inhibition in vivo at 0.001 mg/kg [2]: 0%
inhibition in vivo at 0.01 mg/kg [2]: 56%
inhibition in vivo at 0.1 mg/kg [2]: 90%

pIC50 [1]: 8.00
Compound: N#Cc1ccc(C(c2ccc3c(c2)NC(=O)CO3)n2ccnc2)cc1 (stereo not shown) [PCH225]

pIC50 [1]: 8.06
Compound: Cn1c(=O)sc2cc(C(c3ccc(C#N)cc3)n3cncn3)ccc21 (stereo not shown) [PCH158]
inhibition in vivo at 0.001 mg/kg [2]: 54%
inhibition in vivo at 0.01 mg/kg [2]: 56%

pIC50 [1]: 8.34
Compound: Cn1c(=O)sc2cc(C(c3ccc(C#N)cc3)n3ccnc3)ccc21 (racemic) [PCH165 (+/−) CD4]
inhibition in vivo at 0.001 mg/kg [2]: 22%
inhibition in vivo at 0.01 mg/kg [2]: 23%
inhibition in vivo at 0.1 mg/kg [2]: 66%

pIC50 [1]: 7.57
Compound: O=c1[nH]c2cc(C(c3ccncc3)n3ccnc3)ccc2o1 (stereo not shown) [PC11129]

Compound: Cn1c(=O)oc2cc(C(c3ccccc3)n3ccnc3)ccc21 (stereo not shown) [AL22, 6-[1H-Imidazol-1-yl(phenyl)methyl]-3-methyl-1,3-benzoxazol-2(3H)-one]
IC50 [3]: 340 nM
IC50 [1]: 320 nM

pIC50 [1]: 8.25
Compound: CN1C(=O)COc2ccc(C(c3ccccc3)n3ccnc3)cc21 (stereo not shown) [PCH213]
inhibition in vivo at 0.001 mg/kg [2]: 0%
inhibition in vivo at 0.01 mg/kg [2]: 3%
inhibition in vivo at 0.1 mg/kg [2]: 5%

Compound: Cn1c(=O)oc2ccc(C(c3ccccc3)n3ccnc3)cc21 (stereo not shown) [PCH31, 3-Methyl-5-[1H-imidazol-1-yl-(phenyl)methyl]-1,3-benzoxazol-2(3H)-one]
IC50 [3]: 50.1 nM
IC50 [1]: 46.6 nM

IC50 [1]: > 3000 nM
Compound: Cn1c(=O)oc2cc(C(c3ccccc3)n3cnnc3)ccc21 (stereo not shown)

pIC50 [1]: 7.60
Compound: Cn1c(=O)oc2ccc(C(c3ccc(Cl)cc3)n3cncn3)cc21 (stereo not shown) [PCH196]

pIC50 [1]: 7.13
Compound: O=C1COc2cc(C(c3ccccc3)n3ccnc3)ccc2N1 (stereo not shown) [PCH211]

Compound: O=c1[nH]c2ccc(C(c3ccccc3)n3ccnc3)cc2s1 (stereo not shown) [PCH100, 6-[1H-Imidazol-1-yl(phenyl)methyl]-1,3-benzothiazol-2(3H)-one]
IC50 [3]: 34 nM
IC50 [1]: 33.7 nM

pIC50 [1]: 7.93
Compound: Cn1c(=O)sc2cc(C(c3ccc(C#N)cc3)n3cnnn3)ccc21 (stereo not shown) [PCH248]

pIC50 [1]: 7.86
Compound: N#Cc1ccc(C(c2ccc3c(c2)SCC(=O)N3)n2ccnc2)cc1 (stereo not shown) [PCH229]
inhibition in vivo at 0.01 mg/kg [2]: 11%
inhibition in vivo at 0.1 mg/kg [2]: 42%
inhibition in vivo at 1 mg/kg [2]: 83%

pIC50 [1]: 7.46
Compound: N#Cc1ccc(C(c2ccc3c(c2)SCC(=O)N3)n2cncn2)cc1 (stereo not shown) [PCH230]
inhibition in vivo at 0.01 mg/kg [2]: 2%
inhibition in vivo at 0.1 mg/kg [2]: 22%
inhibition in vivo at 1 mg/kg [2]: 74%

pIC50 [1]: 8.27
Compound: CN1C(=O)CSc2cc(C(c3ccc(C#N)cc3)n3ccnc3)ccc21 (stereo not shown) [PCH240]

pIC50 [1]: 7.50
Compound: Cn1c(=O)sc2cc(C(c3cccc(C#N)c3)n3cncn3)ccc21 (stereo not shown) [PCH258]

pIC50 [1]: 7.73
Compound: Cn1c(=O)oc2ccc(C(c3ccc(Cl)cc3)n3cncn3)cc21 (stereo not shown) [PCH160, 5-[(4-Chlorophenyl)(1H-1,2,4-triazol-1-yl)methyl]-3-methyl-1,3-benzoxazol-2(3H)-one]

pIC50 [1]: 7.70
Compound: COc1cc2oc(=O)[nH]c2cc1C(c1ccc(C#N)cc1)n1ccnc1 (stereo not shown) [GCA36]

IC50 [1]: > 3000 nM
Compound: Cn1c(=O)oc2cc(C(c3ccccc3)n3cncn3)ccc21 (stereo not shown) [PCH20, 3-Methyl-6-[phenyl(1H-1,2,4-triazol-1-yl)methyl]-1,3-benzoxazol-2(3H)-one]

pIC50 [1]: 8.46
Compound: CN1C(=O)COc2ccc(C(c3ccc(C#N)cc3)n3ccnc3)cc21 (stereo not shown) [PCH222]
inhibition in vivo at 0.001 mg/kg [2]: 0%
inhibition in vivo at 0.003 mg/kg [2]: 22%
inhibition in vivo at 0.01 mg/kg [2]: 32%

Compound: Cn1c(=O)sc2cc(C(c3ccccc3)n3ccnc3)ccc21 (racemic) [(+/−)PCH28, 6-[1H-Imidazol-1-yl(phenyl)methyl]-3-methyl-1,3-benzothiazol-2(3H)-one]
IC50 [3]: 23.4 nM
inhibition in vivo at 0.01 mg/kg [2]: 13%
inhibition in vivo at 0.1 mg/kg [2]: 25%
inhibition in vivo at 1 mg/kg [2]: 75%

IC50 [1]: > 2000 nM
Compound: Cn1c(=O)oc2cc(C(c3ccc(Cl)cc3)n3ccnc3)ccc21 (stereo not shown) [PCH15, 6-[(4-Chlorophenyl)(1H-imidazol-1-yl)methyl]-3-methyl-1,3-benzoxazol-2(3H)-one]

pIC50 [1]: 8.52
Compound: Cn1c(=O)sc2cc(C(c3ccc([N+](=O)[O-])cc3)n3cncn3)ccc21 (stereo not shown) [PCH259]
inhibition in vivo at 0.001 mg/kg [2]: 31%
inhibition in vivo at 0.01 mg/kg [2]: 63%
inhibition in vivo at 0.1 mg/kg [2]: 88%

Compound: Cn1c(=O)sc2cc(C(c3ccccc3)n3ccnc3)ccc21 (racemic) [(E2) PCH28]
IC50 [3]: 22.6 nM

pIC50 [1]: 8.40
Compound: CCn1c(=O)sc2cc(C(c3ccc([N+](=O)[O-])cc3)n3cncn3)ccc21 (stereo not shown) [PCH243, 3-Ethyl-6-[(4-nitrophenyl)(1H-1,2,4-triazol-1-yl)methyl]-1,3-benzothiazol-2(3H)-one]

Compound: Cn1c(=O)sc2cc(C(c3ccccc3)n3ccnc3)ccc21 (racemic) [(E1)PCH28]
IC50 [3]: 24.9 nM

Compound: CN1C(=O)COc2cc(C(c3ccccc3)n3ccnc3)ccc21 (stereo not shown) [PCH19, 4-Methyl-7-[1H-imidazol-1-yl(phenyl)methyl]-1,4-benzoxazin-3(4H)-one]
IC50 [3]: 59.9 nM
IC50 [1]: 52.5 nM

Compound: Cn1c(=O)oc2cc(C(c3ccncc3)n3ccnc3)ccc21 (stereo not shown) [PCH30]
IC50 [3]: 477 nM
IC50 [1]: 38 nM

Compound: Cn1c(=O)oc2cc(C(c3cccnc3)n3ccnc3)ccc21 (stereo not shown) [PCH116]
IC50 [3]: 34.6 nM
IC50 [1]: 33.7 nM

Compound: CN1C(=O)COc2ccc(C(c3ccc(C#N)cc3)n3cncn3)cc21 (stereo not shown) [PCH223]
inhibition in vivo at 0.001 mg/kg [2]: 4%
inhibition in vivo at 0.01 mg/kg [2]: 22%
inhibition in vivo at 0.1 mg/kg [2]: 66%

pIC50 [1]: 5.74
Compound: Cn1c(=O)oc2ccc(C(c3ccccc3)n3cncn3)cc21 (stereo not shown) [PCH183, 3-Methyl-5-[1H-1,2,4-triazol-1-yl(phenyl)methyl]-1,3-benzoxazol-2(3H)-one]

Compound: N#Cc1ccc(C(c2ccc(C#N)cc2)n2cncn2)cc1 [Letrozole, reference compound]
inhibition in vivo at 0.001 mg/kg [2]: 66%
inhibition in vivo at 0.003 mg/kg [2]: 74%
inhibition in vivo at 0.005 mg/kg ([2]; dose 5 μg/Kg): 91%
inhibition in vivo at 0.01 mg/kg [2]: 90%

pIC50 [1]: 7.25
Compound: CN1C(=O)CSc2cc(C(c3ccc(C#N)cc3)n3cncn3)ccc21 (stereo not shown) [PCH231]

pIC50 [1]: 8.35
Compound: CCn1c(=O)sc2cc(C(c3ccc(C#N)cc3)n3cncn3)ccc21 (stereo not shown) [PCH260]
inhibition in vivo at 0.001 mg/kg [2]: 32%
inhibition in vivo at 0.01 mg/kg [2]: 50%
inhibition in vivo at 0.1 mg/kg [2]: 90%

Compound: Cn1c(=O)oc2cc(C(c3ccc(C#N)cc3)n3ccnc3)ccc21 (stereo not shown) [PCH27]
IC50 [3]: 72 nM
IC50 [1]: 4.62 nM

pIC50 [1]: 8.37
Compound: CCn1c(=O)sc2cc(C(c3ccc(C#N)cc3)n3ccnc3)ccc21 (stereo not shown) [PCH241]
inhibition in vivo at 0.001 mg/kg [2]: 18%
inhibition in vivo at 0.003 mg/kg [2]: 37%
inhibition in vivo at 0.01 mg/kg [2]: 16%

pIC50 [1]: 8.31
Compound: Cn1c(=O)sc2cc(C(c3ccc(C#N)cc3)n3ccnc3)ccc21 (racemic) [PCH165 (−)CD4]

pIC50 [1]: 8.06
Compound: Cn1c(=O)sc2cc(C(c3ccc(C#N)cc3)n3ccnc3)ccc21 (racemic) [PCH165 (+)CD4]

pIC50 [1]: 6.75
Compound: O=c1[nH]c2cc(C(c3ccccc3)n3cncn3)ccc2s1 (stereo not shown) [PCH132]

pIC50 [1]: 7.26
Compound: O=C1CSc2cc(C(c3ccccc3)n3ccnc3)ccc2N1 (stereo not shown) [PCH227, 7-[1H-Imidazol-1-yl(phenyl)methyl]-1,4-benzothiazin-3(4H)-one]

Compound: O=c1[nH]c2ccc(C(c3ccccc3)n3ccnc3)cc2o1 (stereo not shown) [PCH10, 6-[1H-Imidazol-1-yl(phenyl)methyl]-1,3-benzoxazol-2(3H)-one]
IC50 [3]: 103 nM
IC50 [1]: 84.6 nM

From patent US20070054899A1 (priority 2003, published 2007)
